In experiment [1] the test system is FCR3 strain (resistant to cycloguanyl) of Plasmodium falciparum. The experiment in a line: Plasmodium falciparum growth inhibition (Giemsa smear count, 48 hours). The experiment is classed as cell-based. To be noted: for IC50: Table 3, read-out: P. falciparum (IC50, μg/mL). The protocol: FCR3 strain (resistant to cycloguanyl) of Plasmodium falciparum isolated in Gambia was used in the experiment to assess anti-malarial activity. Plasmodium falciparum synchronized to a ring phase by sorbitol treatment was injected in 50 μL 96 well plate. The hematocrit value of the culture liquid is 2% and the infection ratio was 0.55%. A substance to be tested was dissolved in DMSO and diluted with medium to an appropriate concentration before 50 μL of a test compound solution was added to the above 96 well plate to the total volume of 100 μL. The final concentration of DMSO added was 1%. Subsequently, after incubation was effected at 37° C. for 48 hours, a sumea film prepared on a slide glass was stained with Giemsa solution. The number of infected erythrocyte among 1000 erythrocytes was counted under an optical microscope. Percent inhibition of malaria parasite growth was calculated for percent infection obtained under the presence of DMSO only and that under the presence of the compound to be tested. Quinine was used as a positive control.

For a further experiment, the system named is human cancer cell KB3-1. The experiment in a line: KB3-1 cell growth inhibition (MTT) to examine toxicity. It counts as cell-based. Conditions: for IC50: Table 3, read-out: KB3-1 (IC50, μg/mL); for Selective toxicity: IC50 (KB3-1)/IC50 (P. falciparum). The method, then:
To 100 μL (2×10^4/ml) of floating liquid of KB3-1 cells, 100 μL of test compound containing a liquid which was prepared by dissolving a test compound in DMSO and diluted to an appropriate concentration (final concentration of DMSO: 1%) was added. The mixture was incubated under 5% CO2 at 37° C. After 72 hours incubation, 25 μL of MTT reagent was added and incubation was effected for 3 hours before only medium was aspiratedly removed. To the medium 200 μL of DMSO was added, the resulting MTT folmazan was extracted and the amount of the dye was quantitatively measured by a calorimetric method (540 nm). The number of survival cell was counted from the amount of formed dye, and percent growth inhibition was determined to assess the toxic activity. Mitomycin C was used as a positive control.

Experiment [2] has as its system Plasmodium berghei (NK65 line). The experiment in a line: In vivo antimalarial activity, four days inhibition effect in infected mouse. Conditions: ICR mouse; for Inhibition (%) / Averaged parasite blood (%): fourth day; for Averaged parasite blood (%): average ± SD of 5 mice. The protocol: Four weeks old male mouse was bred at 25° C. under the condition of 12 hours light and 12 hours dark, and used in the assay.
Blood was corrected with a syringe from the heart of a donor mouse with 15 % of parasitaemia. To this blood, trisodium citrate aqueous solution was added in one seventh by volume to prevent coagulation of blood. The resulting solution was diluted with 0.9% aqueous sodium chloride solution so that the final concentration of infected blood cells is 1×10^7 per 0.2 ml. […]
To mouse (one group: 5), 0.2 ml of the infected erythrocytes was administered through tail vein. After 2 hours, the CMC solution (0.2 ml) of the respective concentration prepared above was orally administered. Starting with this time as 0 day, the solution was administered every day till a third day and infection ratio was examined on a fourth day. The infection ratio was determined by collecting blood from mouse tail, preparing smear, and counting infected erythrocytes using a microscope. The infection ratio of control mouse (5 infected mice administered only by the 0.5% CMC solution) was about 28% on the fourth day.
Percent growth inhibition of parasites by test compound was calculated from the following formula: Percent growth inhibition of parasites=(1−averaged infection ratio of mice treated with test compound/averaged infection ratio of control mice)×100
Life prolonging effect by test compound (T/C) was calculated from the following equation. Life Prolonging Effect (T/C)=averaged number of subsistence days of mouse treated by test compound/averaged number of subsistence days of control mouse

Setting [3] is: 25 mg/kg oral, day 0 to third day.
Where [4] appears, read: 50 mg/kg oral, day 0 to third day.
Where [5] appears, read: 100 mg/kg oral, day 0 to third day.
The mark [6] stands for this setting: 200 mg/kg oral, day 0 to third day.

≈ marks a conversion by molar mass, not a printed value. Read-outs that look alike come from different tables or passages of the source.

The values that follow come from patent publication US20050245600A1, “Novel antimalarial agent” (Osaka Bioscience Institute, priority 2002, published 2005).

In the case of `O=C1c2c(O)cc(O)cc2O[C@H](c2ccc(O)cc2)[C@H]1c1c(O)cc(O)c2c1O[C@H](c1ccc(O)cc1)[C@@H](O)C2=O` [GK-2, 2S,3R,2′S,3′R-5,7,3′,5′,7′-pentahydroxy-2,2′-bis-(4-hydroxyphenyl)-2,3,2′,3′-tetrahydro-[3,8′]bichromenyl-4,4′-dione], in experiment [1] (Table 2, 0.5 μg/mL, read-out: Inhibition of P. falciparum %), the inhibition – broadly, the change of the read-out against control, counted positive when it falls – at 0.5 µg/mL was found to be 70%. Besides, the inhibition at 5 µg/mL worked out at 65% in experiment [1] (Table 2, 5 μg/mL, read-out: Inhibition of P. falciparum %) and 22% in the experiment with human cancer cell KB3-1 (Homo sapiens, KB 3-1, Table 2, 5 μg/mL). Also, the IC50 is 0.09 µg/mL (≈ 0.161 µM) in experiment [1] and more than 100 µg/mL with human cancer cell KB3-1 (Homo sapiens, KB 3-1). In the experiment with human cancer cell KB3-1 (Homo sapiens, KB 3-1, Table 2, 50 μg/mL), at 50 µg/mL the inhibition was 10%. In the experiment with human cancer cell KB3-1, this compound had a Selective toxicity of more than 1100. Moreover, the Averaged subsistence days in experiment [2] (setting [3]) is on record as 9.5 ± 1.7 days; in experiment [2] (setting [4]) it was 10.0 ± 0.0 days; in experiment [2] (setting [5]), 10.0 ± 0.0 days; in experiment [2] (setting [6]), 11.0 ± 0.7 days. Besides, the “T/C (life prolonging effect)” value is 119 in experiment [2] (setting [3]), 125 in experiment [2] (setting [4]), 125 in experiment [2] (setting [5]) and 134 in experiment [2] (setting [6]). Besides, the “Inhibition (%)” value in experiment [2] (setting [3]) was found to be 40%; in experiment [2] (setting [4]) it was 43%; in experiment [2] (setting [5]), 52%; in experiment [2] (setting [6]), 60%. In addition, the “Averaged parasite blood (%)” value in experiment [2] (setting [3]) worked out at 17.3 ± 3.4%; in experiment [2] (setting [4]) it was 16.6 ± 2.4%; in experiment [2] (setting [5]), 13.9 ± 2.4%; in experiment [2] (setting [6]) it was 11.5 ± 1.2%.

For `O=C1c2c(O)cc(O)c([C@@H]3C(=O)c4c(O)cc(O)cc4O[C@H]3c3ccc(O)cc3)c2O[C@H](c2ccc(O)cc2)[C@H]1O` [GK-4, 2R,3S,2′S,3′R-5,7,3′,5′,7′-pentahydroxy-2,2′-bis-(4-hydroxyphenyl)-2,3,2′,3′-tetrahydro-[3,8′]bichromenyl-4,4′-dione], the IC50 in experiment [1] is 1.1 µg/mL (≈ 1.97 µM); in the experiment on human cancer cell KB3-1 (Homo sapiens, KB 3-1), more than 100 µg/mL. In the experiment with human cancer cell KB3-1, this compound showed a Selective toxicity of more than 91.

For the compound `C[C@@H]1CC[C@H]2[C@@H](C)C(=O)O[C@@H]3O[C@@]4(C)CC[C@@H]1[C@]32OO4` [artemisinin, reference compound], in experiment [2] (15 mg/kg), the Averaged subsistence days came to 10.3 ± 2.3 days, the “T/C (life prolonging effect)” value is 129, the “Inhibition (%)” value was 54% and the “Averaged parasite blood (%)” value turned out to be 13.3 ± 1.6%.

Turning to `O=C1c2c(O)cc(O)cc2O[C@H](c2ccc(O)cc2)[C@H]1c1c(O)cc(O)c2c1O[C@H](c1ccc(O)c(O)c1)[C@@H](O)C2=O` [GK-3, 2S,3R,2′S,3′R-2′-(3,4-dihydroxyphenyl)-5,7,3′,5′,7′-pentahydroxy-2-(4-hydroxyphenyl)-2,3,2′,3′-tetrahydro-[3,8′]bichromenyl-4,4′-dione], the IC50 is 0.12 µg/mL (≈ 0.209 µM) in experiment [1] and more than 100 µg/mL in the experiment with human cancer cell KB3-1 (Homo sapiens, KB 3-1). This compound also yielded a Selective toxicity in the experiment with human cancer cell KB3-1 of more than 830.

On to `O=C1C[C@@H](c2ccc(O)cc2)Oc2c1c(O)cc(O)c2[C@H]1C(=O)c2c(O)cc(O)cc2O[C@@H]1c1ccc(O)cc1` [GK-1, 2S,3R,2′S-5,7,5′,7′-tetrahydroxy-2,2′-bis-(4-hydroxyphenyl)-2,3,2′,3′-tetrahydoro-[3,8′]bichromenyl-4,4′-dione], for which the IC50 in experiment [1] is 0.35 µg/mL (≈ 0.645 µM); with human cancer cell KB3-1 (Homo sapiens, KB 3-1) it was 27 µg/mL (≈ 49.8 µM). In the experiment on human cancer cell KB3-1, the Selective toxicity was 77.

For `C=C[C@H]1C[N@@]2CC[C@H]1C[C@H]2[C@H](O)c1ccnc2ccc(OC)cc12` [quinine, reference compound], the inhibition at 0.033 µg/mL in experiment [1] (Table 1 control, 33 ng/mL, read-out: P. falciparum Growth Inhibition (%)) was determined as 73%; in experiment [1] (Table 2 control, 0.033 μg/mL, read-out: Inhibition of P. falciparum %), 62%; in experiment [1] (Table 3 control, 0.033 μg/mL, read-out: P. falciparum inhibition) it was 36%. Also, the inhibition at 0.1 µg/mL in experiment [1] (Table 1 control, 100 ng/mL, read-out: P. falciparum Growth Inhibition (%)) was found to be 90%; in experiment [1] (Table 2 control, 0.1 μg/mL, read-out: Inhibition of P. falciparum %), 90%; in experiment [1] (Table 3 control, 0.1 μg/mL, read-out: P. falciparum inhibition), 82%.
